Assay in all cases: MIC, microdilution broth method (NCCLS)
Format in all cases: cell-based
(Broth dilution looks for growth in wells or tubes with falling amounts of substance.)

One experiment concerns E. coli OC2605. Particulars: Escherichia coli. The procedure, abridged: (§1)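 NCCLS M7-A4 broth microdilution: two-fold drug dilutions in cation-adjusted Mueller-Hinton broth, inoculum approximately 5×10^4 CFU/well. Trays incubated at 35 °C for 16-20 hours. MIC read by comparing growth to compound-free growth controls.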
The next experiment relates to E. faecalis ATCC29212. Particulars: Enterococcus faecalis, read-out: MIC Values, C: E. faecalis ATCC29212. The procedure, abridged:
as §1

A further experiment has as its system H. influenzae ATCC49247. Particulars: Haemophilus influenzae, read-out: MIC Values, E: H. influenzae ATCC49247. The procedure, abridged: as §1
The test system of the next experiment is S. aureus ATCC29213. Particulars: Staphylococcus aureus, read-out: MIC Values, B: S. aureus ATCC29213. The method in brief:
as §1

Another experiment relates to S. pneumoniae ATCC49619. Particulars: Streptococcus pneumoniae, read-out: MIC Values, D: S. pneumoniae ATCC49619. The method in brief: as §1
Where [1] appears, read: Table 1, 6-Carbamoyl-3-Acyl Macrolide Derivatives, read-out: MIC Values, A: E. coli OC2605.
Setting [2] is: Table 1, 6-Carbamoyl-3-Acyl Macrolide Derivatives.
Where [3] appears, read: Table 2, 3,6-Dicarbamoyl Macrolide Derivatives, read-out: MIC Values, A: E. coil OC2605.
Where [4] appears, read: Table 2, 3,6-Dicarbamoyl Macrolide Derivatives.

≈ marks a conversion by molar mass, not a printed value. Where two headings read alike, the source gives them in different places.

On to `CC[C@H]1OC(=O)[C@H](C)[C@@H](OC(=O)C(C)C)[C@H](C)[C@@H](O[C@@H]2O[C@H](C)C[C@H](N(C)C)[C@H]2O)[C@](C)(OC(=O)NC/C=C/C=C/c2cccnc2)C[C@@H](C)C(=O)[C@H](C)[C@H]2NC(=O)O[C@@]21C` [Compound 24], for which the MIC was over 16 µg/mL in the experiment with E. coli OC2605 (setting [1]); 0.25 µg/mL (≈ 0.292 µM) in the experiment on E. faecalis ATCC29212 (setting [2]); 2 µg/mL (≈ 2.33 µM) with H. influenzae ATCC49247 (setting [2]); 0.5 µg/mL (≈ 0.583 µM) with S. aureus ATCC29213 (setting [2]); under 0.015 µg/mL with S. pneumoniae ATCC49619 (setting [2]).

Take `CC[C@H]1OC(=O)[C@H](C)[C@@H](OC(=O)Cc2ccncc2)[C@H](C)[C@@H](O[C@@H]2O[C@H](C)C[C@H](N(C)C)[C@H]2O)[C@](C)(OC(=O)NC/C=C/c2ccc(-c3ncccn3)cc2)C[C@@H](C)C(=O)[C@H](C)[C@H]2NC(=O)O[C@@]21C` [Compound 8]: the MIC in the experiment on E. coli OC2605 (setting [1]) worked out at 16 µg/mL (≈ 16.7 µM); in the experiment with E. faecalis ATCC29212 (setting [2]), 0.25 µg/mL (≈ 0.261 µM); with H. influenzae ATCC49247 (setting [2]) it was 2 µg/mL (≈ 2.09 µM); with S. aureus ATCC29213 (setting [2]), 0.5 µg/mL (≈ 0.522 µM); in the experiment on S. pneumoniae ATCC49619 (setting [2]), 0.06 µg/mL (≈ 0.0627 µM).

On to `CC[C@H]1OC(=O)[C@H](C)[C@@H](OC(=O)C(C)C)[C@H](C)[C@@H](O[C@@H]2O[C@H](C)C[C@H](N(C)C)[C@H]2O)[C@](C)(OC(=O)NC/C=C/c2cnc3ccccc3c2)C[C@@H](C)C(=O)[C@H](C)[C@H]2NC(=O)O[C@@]21C` [Compound 31, Propanoic acid, 2-methyl-, (3aS,4R,7R,8S,9S,10R,11R,13R,15R,15aR)-4-ethyltetradecahydro-3a,7,9,11,13,15-hexamethyl-2,6,14-trioxo-11-[[[[(2E)-3-(3-quinolinyl)-2-propenyl]amino]carbonyl]oxy]-10-[[3,4,6-trideoxy-3-(dimethylamino)-β-D-xylo-hexopyranosyl]oxy]-2H-oxacyclotetradecino[4,3-d]oxazol-8-yl ester], for which the MIC was found to be 8 µg/mL (≈ 9.08 µM) in the experiment on E. coli OC2605 (setting [1]); 0.25 µg/mL (≈ 0.284 µM) in the experiment on E. faecalis ATCC29212 (setting [2]); 4 µg/mL (≈ 4.54 µM) with H. influenzae ATCC49247 (setting [2]); 0.5 µg/mL (≈ 0.567 µM) in the experiment on S. aureus ATCC29213 (setting [2]); 0.03 µg/mL (≈ 0.034 µM) in the experiment on S. pneumoniae ATCC49619 (setting [2]).

On to `CC[C@H]1OC(=O)[C@H](C)[C@@H](OC(=O)Cc2cccnc2)[C@H](C)[C@@H](O[C@@H]2O[C@H](C)C[C@H](N(C)C)[C@H]2O)[C@](C)(OC(=O)NC/C=C/c2cnc(C3CC3)nc2)C[C@@H](C)C(=O)[C@H](C)[C@H]2NC(=O)O[C@@]21C` [Compound 39], for which the MIC amounted to 16 µg/mL (≈ 17.4 µM) with E. coli OC2605 (setting [1]); 0.5 µg/mL (≈ 0.543 µM) in the experiment on E. faecalis ATCC29212 (setting [2]); 2 µg/mL (≈ 2.17 µM) with H. influenzae ATCC49247 (setting [2]); 1 µg/mL (≈ 1.09 µM) with S. aureus ATCC29213 (setting [2]); 0.06 µg/mL (≈ 0.0651 µM) in the experiment with S. pneumoniae ATCC49619 (setting [2]).

Take `CC[C@H]1OC(=O)[C@H](C)[C@@H](OC(=O)N2CCOCC2)[C@H](C)[C@@H](O[C@@H]2O[C@H](C)C[C@H](N(C)C)[C@H]2O)[C@](C)(OC(=O)NC/C=C/c2ccc(-c3ncccn3)cc2)C[C@@H](C)C(=O)[C@H](C)[C@H]2NC(=O)O[C@@]21C` [Compound 63]: the MIC in the experiment with E. coli OC2605 (setting [3]) is over 16 µg/mL; in the experiment with E. faecalis ATCC29212 (setting [4]), 0.5 µg/mL (≈ 0.526 µM); in the experiment on H. influenzae ATCC49247 (setting [4]), 4 µg/mL (≈ 4.21 µM); with S. aureus ATCC29213 (setting [4]), 0.5 µg/mL (≈ 0.526 µM); in the experiment on S. pneumoniae ATCC49619 (setting [4]), 0.06 µg/mL (≈ 0.0631 µM).

On to `CC[C@H]1OC(=O)[C@H](C)[C@@H](OC(=O)N(C)C)[C@H](C)[C@@H](O[C@@H]2O[C@H](C)C[C@H](N(C)C)[C@H]2O)[C@](C)(OC(=O)NC/C=C/c2ccc(-c3ncccn3)cc2)C[C@@H](C)C(=O)[C@H](C)[C@H]2NC(=O)O[C@@]21C` [Compound 55], for which the MIC in the experiment with E. coli OC2605 (setting [3]) came out at 16 µg/mL (≈ 17.6 µM); in the experiment with E. faecalis ATCC29212 (setting [4]), 0.25 µg/mL (≈ 0.275 µM); in the experiment with H. influenzae ATCC49247 (setting [4]), 4 µg/mL (≈ 4.4 µM); in the experiment on S. aureus ATCC29213 (setting [4]), 0.5 µg/mL (≈ 0.55 µM); with S. pneumoniae ATCC49619 (setting [4]) it was 0.03 µg/mL (≈ 0.033 µM).

Regarding `CC[C@H]1OC(=O)[C@H](C)[C@@H](OC(=O)Cc2cccnc2)[C@H](C)[C@@H](O[C@@H]2O[C@H](C)C[C@H](N(C)C)[C@H]2O)[C@](C)(OC(=O)NC/C=C/c2cccnc2)C[C@@H](C)C(=O)[C@H](C)[C@H]2NC(=O)O[C@@]21C` [Compound 19], the MIC is 16 µg/mL (≈ 18.2 µM) in the experiment with E. coli OC2605 (setting [1]); 0.25 µg/mL (≈ 0.284 µM) in the experiment on E. faecalis ATCC29212 (setting [2]); 1 µg/mL (≈ 1.14 µM) in the experiment with H. influenzae ATCC49247 (setting [2]); 1 µg/mL (≈ 1.14 µM) in the experiment with S. aureus ATCC29213 (setting [2]); 0.06 µg/mL (≈ 0.0682 µM) in the experiment with S. pneumoniae ATCC49619 (setting [2]).
